Reference: ChEMBL document CHEMBL4725308, “MK-5204: An orally active β-1,3-glucan synthesis inhibitor” (Bioorg Med Chem Lett, 2020)
In brackets after ≈: the same amount, converted by molar mass.

Legend:
Candida albicans [1] = assay: Antifungal activity against Candida albicans MY1055 assessed as fungal growth inhibition measured after 24 hrs in presence of mouse serum by liquid microdilution method; format: functional
Candida albicans [2] = assay: Antifungal activity against Candida albicans MY1055 infected in DBA/2 mouse model assessed as log change in colony forming units in kidney at 25 mg/kg, po bid for 2 days and measured after 4 days by TOKA; format: functional; conditions: time 2 day
Aspergillus fumigatus [3] = assay: Antifungal activity against Aspergillus fumigatus MF5668 assessed as fungal growth inhibition measured after 24 hrs by liquid microdilution method; format: functional; conditions: read-out: MEC
Candida albicans [4] = assay: Antifungal activity against Candida albicans MY1055 infected in DBA mouse model assessed as log change in colony forming units in kidney at 12.5 mg/kg, po bid for 2 days and measured after 4 days by TOKA; format: functional; conditions: time 2 day
[5] = Oral bioavailability in mouse; format: ADME, organism-based; conditions: in vivo
Candida albicans [6] = assay: Antifungal activity against Candida albicans MY1055 infected in DBA/2 mouse model assessed as log change in colony forming units in kidney at 6.5 mg/kg, po bid for 2 days and measured after 4 days by TOKA; format: functional; conditions: time 2 day
[7] = Inhibition of beta-1,3-glucan synthase in Candida albicans MY1055 microsomal membrane using UDP-[3H]-glucose as substrate incubated for 2 hrs in presence of UTP by radioactivity-based assay; format: cell membranes
Candida albicans [8] = assay: Antifungal activity against Candida albicans MY1055 assessed as fungal growth inhibition measured after 24 hrs by liquid microdilution method; format: functional
Candida albicans [9] = assay: Antifungal activity against Candida albicans MY1055 infected in DBA/2N mouse model administered for 7 days by TOKA; format: functional; conditions: MY1055, 168 h, time 7 day
[10] = Half lie in mouse; format: ADME, organism-based; conditions: in vivo
[11] = Clearance in rat; format: ADME; conditions: in vivo
Nakaseomyces glabratus = assay: Antifungal activity against Candida glabrata MY1381 assessed as fungal growth inhibition; format: functional
[12] = Clearance in mouse; format: ADME, organism-based; conditions: in vivo
Candida tropicalis = assay: Antifungal activity against Candida tropicalis MY1012 assessed as fungal growth inhibition; format: functional
Aspergillus fumigatus [13] = assay: Antifungal activity against Aspergillus fumigatus MF5668 infected in DBA/2N mouse assessed as mouse survival at 3.125 mg/kg, ip bid administered for 7 days starting from 30 mins post infection and measured up to 21 days relative to control; format: functional; conditions: 168 h, time 7 day
[14] = Half life in rhesus monkey; format: ADME, Macaca mulatta; conditions: in vivo
Aspergillus fumigatus [15] = assay: Antifungal activity against Aspergillus fumigatus MF5668 infected in DBA/2N mouse assessed as mean survival days at 12.5 mg/kg, ip bid administered for 7 days starting from 30 mins post infection and measured up to 21 days relative to control; format: functional; conditions: time 7 day
[16] = Oral bioavailability in rhesus monkey; format: ADME, organism-based, Macaca mulatta; conditions: in vivo
Pichia kudriavzevii = assay: Antifungal activity against Candida krusei ATCC 6258 assessed as fungal growth inhibition; format: functional
Candida albicans [17] = assay: Antifungal activity against Candida albicans MY1055 infected in DBA/2N mouse model assessed as mouse survival at 12.5 mg/kg, ip bid for 7 days and measured post-last dose by TOKA relative to control; format: functional; conditions: 168 h, time 7 day
Candida albicans [18] = assay: Antifungal activity against Candida albicans MY1055 infected in DBA/2N mouse model assessed as mouse survival at 12.5 mg/kg, po bid for 7 days and measured post-last dose by TOKA relative to control; format: functional; conditions: 168 h, time 7 day
[19] = Half life in rat; format: ADME; conditions: in vivo
Aspergillus fumigatus [20] = assay: Antifungal activity against Aspergillus fumigatus MF5668 infected in DBA/2N mouse assessed as mouse survival at 1.56 mg/kg, ip bid administered for 7 days starting from 30 mins post infection and measured up to 21 days relative to control; format: functional; conditions: 168 h, time 7 day
[21] = Oral bioavailability in dog; format: ADME, organism-based, Canis lupus familiaris; conditions: in vivo
Candida albicans [22] = assay: Antifungal activity against Candida albicans MY1055 infected in DBA/2N mouse model assessed as mouse survival at 6.5 mg/kg, po bid for 7 days and measured post-last dose by TOKA relative to control; format: functional; conditions: 168 h, time 7 day
Aspergillus fumigatus [23] = assay: Antifungal activity against Aspergillus fumigatus MF5668 infected in DBA/2N mouse assessed as mean survival days at 6.25 mg/kg, ip bid administered for 7 days starting from 30 mins post infection and measured up to 21 days relative to control; format: functional; conditions: time 7 day
Aspergillus fumigatus [24] = assay: Antifungal activity against Aspergillus fumigatus MF5668 infected in DBA/2N mouse assessed as mouse survival at 6.25 mg/kg, ip bid administered for 7 days starting from 30 mins post infection and measured up to 21 days relative to control; format: functional; conditions: 168 h, time 7 day
Candida parapsilosis = assay: Antifungal activity against Candida parapsilosis ATCC 22019 assessed as fungal growth inhibition; format: functional; conditions: Lodderomyces parapsilosis
Candida albicans [25] = assay: Antifungal activity against Candida albicans MY1055 infected in DBA/2N mouse model assessed as mouse survival at 25 mg/kg, po bid for 7 days and measured post-last dose by TOKA relative to control; format: functional; conditions: 168 h, time 7 day
Aspergillus fumigatus [26] = assay: Antifungal activity against Aspergillus fumigatus MF5668 infected in DBA/2N mouse assessed as mouse survival at 12.5 mg/kg, ip bid administered for 7 days starting from 30 mins post infection and measured up to 21 days relative to control; format: functional; conditions: 168 h, time 7 day
Aspergillus fumigatus [27] = assay: Antifungal activity against Aspergillus fumigatus MF5668 infected in DBA/2N mouse assessed as mean survival days at 1.56 mg/kg, ip bid administered for 7 days starting from 30 mins post infection and measured up to 21 days relative to control; format: functional; conditions: time 7 day
Clavispora lusitaniae = assay: Antifungal activity against Clavispora lusitaniae MY1396 assessed as fungal growth inhibition; format: functional
[28] = Clearance in rhesus monkey; format: ADME, Macaca mulatta; conditions: in vivo
[29] = Half life in dog; format: ADME, Canis lupus familiaris; conditions: in vivo
[30] = Oral bioavailability in rat; format: ADME, organism-based; conditions: in vivo
[31] = Clearance in dog; format: ADME, Canis lupus familiaris; conditions: in vivo
Aspergillus fumigatus [32] = assay: Antifungal activity against Aspergillus fumigatus MF5668 infected in DBA/2N mouse assessed as mean survival days at 3.125 mg/kg, ip bid administered for 7 days starting from 30 mins post infection and measured up to 21 days relative to control; format: functional; conditions: time 7 day

SMILES: CCCN[C@@](C)(CO[C@H]1[C@H](n2ncnc2C(N)=O)C[C@@]23COC[C@@]1(C)[C@@H]2CC[C@H]1C3=CC[C@@]2(C)[C@H](C(=O)O)[C@@](C)([C@H](C)C(C)C)CC[C@]12C)C(C)C
- MIC (Candida albicans [1]): 32 µg/mL
- Activity (Candida albicans [2]): -1.9 log CFU
- minimal effective concentration (Aspergillus fumigatus [3]): < 0.03 µg/mL
- Activity (Candida albicans [4]): -0.8 log CFU
- bioavailability [5]: 19%
- Activity (Candida albicans [6]): -0.7 log CFU
- IC50 [7]: 0.015 µg/mL
- MIC (Candida albicans [8]): 0.5 µg/mL (≈ 0.691 µM)

SMILES: CC(C)[C@@H](C)[C@@]1(C)CC[C@]2(C)[C@H]3CC[C@@H]4[C@@]5(COC[C@]4(C)[C@@H](OC[C@@](C)(C(C)C)N(C)C)[C@H](n4ncnc4C(N)=O)C5)C3=CC[C@@]2(C)[C@@H]1C(=O)O
- MIC (Candida albicans [1]): 16 µg/mL
- Activity (Candida albicans [2]): -1.8 log CFU
- minimal effective concentration (Aspergillus fumigatus [3]): < 0.03 µg/mL
- Activity (Candida albicans [4]): -1.4 log CFU
- bioavailability [5]: 21%
- Activity (Candida albicans [6]): -0.3 log CFU
- IC50 [7]: 0.015 µg/mL
- MIC (Candida albicans [8]): 0.5 µg/mL (≈ 0.704 µM)

SMILES: CCN[C@@](C)(CO[C@H]1[C@H](n2ncnc2C(N)=O)C[C@@]23COC[C@@]1(C)[C@@H]2CC[C@H]1C3=CC[C@@]2(C)[C@H](C(=O)O)[C@@](C)([C@H](C)C(C)C)CC[C@]12C)C(C)C
- MIC (Candida albicans [1]): 16 µg/mL
- Activity (Candida albicans [2]): -1.8 log CFU
- minimal effective concentration (Aspergillus fumigatus [3]): < 0.03 µg/mL
- Activity (Candida albicans [4]): -1.1 log CFU
- bioavailability [5]: 17%
- Activity (Candida albicans [6]): -1.1 log CFU
- IC50 [7]: 0.011 µg/mL
- MIC (Candida albicans [8]): 0.25 µg/mL (≈ 0.352 µM)

SMILES: CC(C)[C@@H](C)[C@@]1(C)CC[C@]2(C)[C@H]3CC[C@@H]4[C@@]5(COC[C@]4(C)[C@@H](OC[C@H](N)C(C)(C)C)[C@H](n4ncnc4C(N)=O)C5)C3=CC[C@@]2(C)[C@@H]1C(=O)O
- MIC (Candida albicans [1]): 8 µg/mL
- Activity (Candida albicans [2]): -2.6 log CFU
- minimal effective concentration (Aspergillus fumigatus [3]): < 0.03 µg/mL
- Activity (Candida albicans [4]): -1.7 log CFU
- bioavailability [5]: 10%
- Activity (Candida albicans [6]): -1.9 log CFU
- IC50 [7]: 0.008 µg/mL
- MIC (Candida albicans [8]): 0.25 µg/mL (≈ 0.367 µM)

SMILES: CCC(N)(CC)CO[C@H]1[C@H](n2ncnc2C(N)=O)C[C@@]23COC[C@@]1(C)[C@@H]2CC[C@H]1C3=CC[C@@]2(C)[C@H](C(=O)O)[C@@](C)([C@H](C)C(C)C)CC[C@]12C
- MIC (Candida albicans [1]): 16 µg/mL
- Activity (Candida albicans [2]): -1.9 log CFU
- minimal effective concentration (Aspergillus fumigatus [3]): < 0.03 µg/mL
- Activity (Candida albicans [4]): -0.6 log CFU
- bioavailability [5]: 3%
- Activity (Candida albicans [6]): -0.2 log CFU
- IC50 [7]: 0.007 µg/mL
- MIC (Candida albicans [8]): 0.125 µg/mL (≈ 0.183 µM)

SMILES: CC(C)[C@@H](C)[C@@]1(C)CC[C@]2(C)[C@H]3CC[C@@H]4[C@@]5(COC[C@]4(C)[C@@H](OC[C@](C)(N)C(C)(C)C)[C@H](n4ncnc4C(N)=O)C5)C3=CC[C@@]2(C)[C@@H]1C(=O)O
- ED99 (Candida albicans [9]): 6.4 mg/kg
- MIC (Candida albicans [1]): 2 µg/mL
- half-life [10]: 5.1 h
- clearance [11]: 6 mL/min/kg
- Activity (Candida albicans [2]): -2.2 log CFU
- minimal effective concentration (Aspergillus fumigatus [3]): < 0.03 µg/mL
- MIC (Nakaseomyces glabratus): 0.125 µg/mL (≈ 0.18 µM)
- clearance [12]: 11 mL/min/kg
- MIC (Candida tropicalis): 0.5 µg/mL (≈ 0.718 µM)
- survival at 3.125 mg/kg (Aspergillus fumigatus [13]): 10%
- half-life [14]: 8.5 h
- MSD (Aspergillus fumigatus [15]): 14.4 days
- bioavailability [16]: 12%
- MIC (Pichia kudriavzevii): 1 µg/mL (≈ 1.44 µM)
- survival at 12.5 mg/kg (Candida albicans [17]): 100%
- survival at 12.5 mg/kg (Candida albicans [18]): 100%
- half-life [19]: 5.5 h
- Activity (Candida albicans [4]): -2.5 log CFU
- bioavailability [5]: 12%
- survival at 1.56 mg/kg (Aspergillus fumigatus [20]): 0%
- bioavailability [21]: 35%
- survival at 6.5 mg/kg (Candida albicans [22]): 100%
- MSD (Aspergillus fumigatus [23]): 12.5 days
- survival at 6.25 mg/kg (Aspergillus fumigatus [24]): 40%
- MIC (Candida parapsilosis): 0.06 µg/mL (≈ 0.0862 µM)
- Activity (Candida albicans [6]): -1.5 log CFU
- IC50 [7]: 0.003 µg/mL
- survival at 25 mg/kg (Candida albicans [25]): 80%
- survival at 12.5 mg/kg (Aspergillus fumigatus [26]): 60%
- MSD (Aspergillus fumigatus [27]): 6.5 days
- MIC (Clavispora lusitaniae): 0.125 µg/mL (≈ 0.18 µM)
- MIC (Candida albicans [8]): 0.06 µg/mL (≈ 0.0862 µM)
- clearance [28]: 4 mL/min/kg
- half-life [29]: 12.3 h
- bioavailability [30]: 17%
- clearance [31]: 2 mL/min/kg
- MSD (Aspergillus fumigatus [32]): 7.3 days

SMILES: CN[C@@](C)(CO[C@H]1[C@H](n2ncnc2C(N)=O)C[C@@]23COC[C@@]1(C)[C@@H]2CC[C@H]1C3=CC[C@@]2(C)[C@H](C(=O)O)[C@@](C)([C@H](C)C(C)C)CC[C@]12C)C(C)C
- MIC (Candida albicans [1]): 8 µg/mL
- Activity (Candida albicans [2]): -1.2 log CFU
- minimal effective concentration (Aspergillus fumigatus [3]): < 0.03 µg/mL
- Activity (Candida albicans [4]): -0.5 log CFU
- bioavailability [5]: 5%
- Activity (Candida albicans [6]): -0.4 log CFU
- IC50 [7]: 0.005 µg/mL
- MIC (Candida albicans [8]): 0.25 µg/mL (≈ 0.359 µM)
